{
  "source": "patent US10322112B2",
  "about": "“Compound combinations for attenuation of bacterial virulence” (priority 2016, dated 2019)",
  "key": {"LasR": {"target": "T1, LasR (Pseudomonas aeruginosa, UniProt P25084)", "T1 construct": "expressed in transfected cells; host or cells: E. coli JLD271", "T1 sequence (P25084 whole entry)": "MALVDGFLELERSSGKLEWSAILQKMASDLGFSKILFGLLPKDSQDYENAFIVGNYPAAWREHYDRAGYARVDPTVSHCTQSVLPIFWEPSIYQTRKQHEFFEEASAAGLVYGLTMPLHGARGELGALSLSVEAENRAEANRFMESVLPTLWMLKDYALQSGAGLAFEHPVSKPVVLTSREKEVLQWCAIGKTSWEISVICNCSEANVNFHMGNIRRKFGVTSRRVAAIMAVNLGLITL", "assay": "E. coli reporter gene primary agonism assay, LasR", "type": "cell-based", "conditions": "compounds at 100 mm; E. coli reporter strain JLD271/pJN105L/pSC11; 100 mm OdDHL = 100%; error ±10%", "experimental": "Percent agonism of a given non-native inducer in a given bacterium and QS system receptor is measured with resepct to the maximum level of agonism (activation) by the native ligand of that receptor in the given bacterium. Percent antagonism is measured in competitive assays. The QS system of interest is activated to 100% with added or endogenous native ligand and the % antagonism of the non-native inducer is assessed with respect to 100% activation by the native inducer. The native ligand which induces LasR is OdDHL, which induces RhlR is BHL and which induces PqsR is PQS. As described herein and in cited references, assays for assessment of % agonism or % atangonism may be performed in E. coli systems (heterologous) or in the bacterium of interest, e.g., Pseudomonas. Dependent upon the assay system employed native ligand may be endogenously present or it may be exogenously supplied to the assay system. […] In antagonism assays using the native strains with functional QS systems, e.g., those of P. aeruginosa, endogenous native ligand is made in the system, so no native ligand is added. In native strains having one or more non-functional QS systems (mutant strains), e.g., P. aeruginosa mutants with non-functional QS systems, native ligand is added at about 10-100× the EC50 of the native ligand. In the agonism assay, native ligand is added as a control. Details of the assays are provided herein in Example 9 and in references cited in Example 9."}, "P. aeruginosa (PAO1) [1]": {"test_system": "P. aeruginosa (PAO1)", "assay": "Rhamnolipid assay", "type": "cell-based, Pseudomonas aeruginosa", "conditions": "MOPS Glutamate and Glucose media, complete or iron/phosphate depleted, 17 h, 100 μM (compounds 1, 2, 3), 25 μM (compound 4), relative to DMSO", "experimental": "A. Pyocyanin Assay Protocol. The amount of pyocyanin in P. aeruginosa culture supernatants was measured following a reported protocol (O'Loughlin et al., 2013) with modifications. A 10 mL overnight culture of P. aeruginosa PAO1 was grown for 16 h. DMSO stock solutions of test compounds (20 mM) were prepared, and 10 μL or 5 μL aliquots were added to sterile 15 mL borosilicate glass test tubes. An inoculating culture was prepared by diluting the overnight culture 1:100 into freshly prepared assay medium (see above), and 2 mL aliquots of this subculture were added to each test tube (0.5% DMSO, final). The cultures were grown for 17 h, and the final cell density measured by reading OD600. Relative pyocyanin levels were measured by first pelleting 1.5 mL of well-mixed culture at 4,000 g for 10 min, transferring 200 μL of the resulting supernatant to a clear, plastic 96-well microtiter plate, and reading absorbance at 695 nm. Media background absorbance (measured from a “no bacteria” control) was subtracted, the resulting values growth normalized by dividing by the final OD600378, and the data plotted relative to a DMSO-treated positive control. B. Rhamnolipid Assay Protocol. Rhamnolipid was quantified following a reported protocol (Koch et al., 1991) with modifications. Assay cultures were prepared and grown in an identical manner to the pyocyanin assay above. Aliquots of the final culture supernatant (1 mL) were transferred to 1 dram glass vials and extracted twice with 1 mL diethyl ether. The pooled organic fractions were evaporated to dryness, and the resulting residue reconstituted in 200 μL de-ionized water. […] After briefly cooling to room temperature, 200 μL of the resulting yellow to yellow-orange solution was transferred to a clear 96-well microtiter plate, and the absorbance at 421 nm measured. Media background absorbance (measured from a “no bacteria” control) was subtracted, the resulting values growth normalized by dividing by the final OD600, and the data plotted relative to a DMSO-treated positive control. […] The amount of elastase B in P. aeruginosa culture supernatants was measured following a reported protocol (Geske et al., 2007) with modifications. […] To quantify elastase B activity, the undigested elastin was pelleted by centrifugation of the assay plate at 1,500 g for 10 min, after which 100 μL of the supernatant was transferred to a new, clear 96-well plate, and the absorbance at 490 nm measured. Media background absorbance (measured from a “no bacteria” control) was subtracted, the resulting values growth normalized by dividing by the final OD600, and the data plotted relative to a DMSO-treated positive control."}, "P. aeruginosa (PAO1) [2]": {"test_system": "P. aeruginosa (PAO1)", "assay": "P. aeruginosa growth curves", "type": "cell-based, Pseudomonas aeruginosa", "experimental": "FIGS. 2A-2D are wild-type P. aeruginosa growth curves in the presence of test compounds in various media. Related to FIGS. 3, 6A and 6B, 7A and 7B, and 12. (FIG. 2A) Growth curves in complete MOPS/Glutamate. (FIG. 2B) Growth curves in complete MOPS/Glucose. […] (FIG. 2D) Growth curves in SCFM2. P. aeruginosa (PAO1) was grown in a manner identical to the pyocyanin assay (see Experimental Procedures). At each time point, growth was measured by either reading OD600 (for MOPS media) or by serially diluting culture aliquots, plating on LB agar, and counting CFUs after overnight incubation at 37° C. (for SCFM2). Compound concentrations are 100 microM for compounds 1, 2, and 3 and 25 microM for compound 4 in all experiments unless noted otherwise. Error bars represent the standard error of at least two biological replicates (n≥2). BHL=N-butyryl L-homoserine lactone (Cayman Chemicals).\nB. Bacterial Strains and Growth Conditions. Protocols for construction of genetic knockout strains are described below in Example 2. All reagents for bacterial culture were purchased from Sigma-Aldrich unless indicated otherwise. Bacteria were routinely cultured in Luria-Bertani broth (LB) at 37° C. with shaking at 200 rpm. Freezer stocks of bacterial strains were maintained at −80° C. in 1:1 LB:glycerol. Bacterial growth was routinely assessed by measuring the culture cell density according to absorbance at 600 nm (OD600341). Cell growth in simulated cystic fibrosis sputum medium (SCFM2) was determined by serially diluting assay cultures, plating on LB agar, and counting the number of colony forming units (CFU) appearing after overnight incubation at 37° C."}},
  "note": "“Also recorded” adds a separate entry of the source.",
  "data": [
    {"smiles": "O=C(N[C@H]1CCOC1=O)C1CCCC1", "note": "[compound 3]", "values": [
      {"measurement": "Activation [%] LasR", "setting": "LasR", "result": "−4", "unit": "%"},
      {"measurement": "rhamnolipid production, single compound screens", "setting": "P. aeruginosa (PAO1) [1]", "result": "induced additional rhamnolipid and elastase B production"},
      {"measurement": "growth with other carbon sources", "setting": "P. aeruginosa (PAO1) [2]; complete MOPS Glucose or LB broth, 100 μM compound 3", "result": "did not observe growth effects with other carbon sources"},
      {"measurement": "growth in MOPS Glutamate", "setting": "P. aeruginosa (PAO1) [2]; complete MOPS Glutamate, 100 μM", "result": "growth delay; also recorded: delayed P. aeruginosa growth in MOPS Glutamate"}
    ]}
  ]
}
